Like-named read-outs stand apart in the source and are kept apart here.

The values that follow come from patent publication US10457677B2 (priority 2015, dated 2019).

The target of assay [1] is purified human recombinant ATM (ataxia telangiectasia mutated), full length (Homo sapiens (Human), UniProt Q13315). In words: ATM kinase assay - determination of ATM inhibition (IC50 ATM), TR-FRET. In kind it is biochemical. An outline of the steps:
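Full-length enzyme, expressed in a mammalian cell line, pre-incubated 15 min with inhibitor in 25 mM HEPES pH 8.0, 10 mM Mg(CH3COO)2, 1 mM MnCl2, 0,1% BSA, 0,01% Brij 35, 5 mM DTT. Full-length cmyc-p53 (Sf21-expressed) and ATP then added, 30-35 min at 22° C. EDTA stop; p53 S15 phosphorylation read by TR-FRET antibodies.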
On the technique in general: Time-resolved FRET reads energy transfer from a long-lived donor to a nearby acceptor.

Assay [2] concerns phosphorylation of CHK2 (phospho-Thr68) in HCT116 cells. Kind of assay: Cellular pCHK2 assay: bleomycin-induced phosphorylation of CHK2 (phospho-Thr68), immunofluorescence high-content analysis. The conditions noted are these: Homo sapiens, HCT-116, 4 h, read-out: IC50 (pCHK2). Type of assay: cell-based, human. From the text: For the identification of substances which inhibit the phosphorylation of the protein kinase CHK2 at the amino acid threonine 68, an immunofluorescence-based “high content” analysis assay was used in HCT116 cells.
In vitro cell-based immunofluorescence assay for the identification of inhibitors of bleomycin-induced phosphorylation of CHK2 (phospho-Thr68) in the human colon carcinoma cell line HCT116:
HCT116 cells are sown out in a defined cell density in 384-well plates in culture medium (DMEM high glucose, 2 mM GlutaMax, 1 mM Na pyruvate, 10% FCS) and incubated overnight at 37° C. and 10% of CO2. On the following day, the test substances are added in a defined concentration range (1 nM to 30 μM) in combination with 10 μM bleomycin, where the concentration of the solvent DMSO is kept constant at 0.5%. […] Parallel staining of DNA with propidium iodide enables determination of the cell count. The pCHK2 signal is detected using a high-content imager (Molecular Devices IMX Ultra) and automatic image analysis using the MetaXpress software belonging to the instrument. The number of cell nuclei which have a pCHK2 signal above a defined background is determined.

Assay [3] deals with PI3K (p120γ) (human) (Homo sapiens (Human), UniProt P48736). In words: PI3K (p120γ) (human), non-radioactive assay (HTRF). Type of assay: biochemical. The conditions noted are these: for IC50: read-out: IC50 (PI3Kgamma); for ratio IC50 (ATM) vs PI3Kgamma, selectivity with respect to PI3Kgamma: as printed:
The procedure:
PI3K (p120γ) (Human), Non-radioactive Assay
PI3K (p120γ) (human) was incubated in an assay buffer comprising 10 μM phosphati-dylinositol 4,5-bisphosphate and MgATP (concentration as necessary). The reaction was initiated by addition of MgATP solution. After an incubation time of 30 min at room temperature, the reaction was stopped by addition of a solution consisting of EDTA and biotinylated phosphatidylinositol 3,4,5-trisphosphate. Finally, the detection buffer, consisting of a europium-labelled anti-GST monoclonal antibody, a GST-labelled GRP1 PH domain and streptavidin allophycocyanin, was added. The plate was read out via homogeneous time-resolved fluorescence (HTRF) and the corresponding signals were evaluated via the formula HTRF=10000×(Em665nm/Em620nm). • MgATP=magnesium 5′-O—[hydroxy({[(hydroxyphosphinato)oxy]phosphinato}oxy)phosphoryl]adenosine • MgCl2=magnesium dichloride • EGTA=ethylene glycol bis(aminoethyl ether) N,N,N′,N′-tetraacetic acid • Tween 20=polysorbate 20 Medicament/pharmaceutical Composition

Assay [4] addresses PI3K p110α/p85α (human) (Homo sapiens (Human), UniProt P42336). Kind of assay: PI3K p110α/p85α (human), non-radioactive assay (HTRF). In kind it is biochemical. The conditions noted are these: for IC50: read-out: IC50 (PI3Kalpha). How it is done: PI3K p110α/p85α (Human), Non-radioactive Assay
(§1) PI3K p110α/p85α (human) was incubated in an assay buffer comprising 10 μM phosphati-dylinositol 4,5-bisphosphate and MgATP (concentration as necessary). The reaction was initiated by addition of MgATP solution. After incubation at room temperature for 40 minutes, the reaction was stopped by addition of a solution consisting of EDTA and biotinylated phosphatidylinositol 3,4,5-trisphosphate. Finally, the detection buffer, consisting of a europium-labelled anti-GST monoclonal antibody, a GST-labelled GRP1 PH domain and streptavidin allophycocyanin, was added. The plate was read out via homogeneous time-resolved fluorescence (HTRF) and the corresponding signals were evaluated via the formula HTRF=10000×(Em665nm/Em620nm).

For assay [5], the target named is mTOR (human) (Homo sapiens (Human), UniProt P42345). Kind of assay: mTOR (human) kinase assay, [γ-33P-ATP] filter assay. In kind it is biochemical. The procedure:
Furthermore, the effect, in particular inhibition, of other kinases and thus the selectivity of the compounds according to the invention can be determined with the aid of the following assay:
mTOR (human) was incubated with 50 mM HEPES pH 7.5, 1 mM EGTA, 0.01% Tween 20, 2 mg/ml of the substrate, 3 mM MnCl2 and [γ-^33P-ATP] (specific activity approximately 500 cpm/pmol, concentration as necessary). The reaction was initiated by addition of MgATP solution. After incubation at room temperature for 40 minutes, the reaction was stopped by addition of 3% phosphoric acid. 10 μl of the reaction solution were then transferred dropwise onto a P30 filtermat and washed three times for 5 min in 75 mM phosphoric acid and once in methanol, dried and evaluated by means of liquid scintillation counting.

In assay [6] the target is PI3K p110δ/p85α (human) (Homo sapiens (Human), UniProt O00329). In words: PI3K p110δ/p85α (human), non-radioactive assay (HTRF). In kind it is biochemical. The conditions noted are these: for IC50: read-out: IC50 (PI3Kdelta). The procedure: PI3K p110δ/p85α (Human), Non-radioactive Assay
as §1, with “p110δ/p85α” for “p110α/p85α”, “After an” for “After”, “incubation time of 30 min” for “incubation”, “temperature,” for “temperature for 40 minutes,”

The target of assay [7] is PI3K p110β/p85α (human) (Homo sapiens (Human), UniProt P42338). Kind of assay: PI3K p110β/p85α (human), non-radioactive assay (HTRF). Type of assay: biochemical. The conditions noted are these: IC50 (ATM) at least 2000 times higher compared with IC50 (PI3Kbeta). The procedure: PI3K p110β/p85α (Human), Non-radioactive Assay
as §1, with “p110β/p85α” for “p110α/p85α”, “After an” for “After”, “incubation time of 30 min” for “incubation”, “temperature,” for “temperature for 40 minutes,”

purified human recombinant ATM (ataxia telangiectasia mutated), full length, sequence (Q13315 whole entry, change not shown): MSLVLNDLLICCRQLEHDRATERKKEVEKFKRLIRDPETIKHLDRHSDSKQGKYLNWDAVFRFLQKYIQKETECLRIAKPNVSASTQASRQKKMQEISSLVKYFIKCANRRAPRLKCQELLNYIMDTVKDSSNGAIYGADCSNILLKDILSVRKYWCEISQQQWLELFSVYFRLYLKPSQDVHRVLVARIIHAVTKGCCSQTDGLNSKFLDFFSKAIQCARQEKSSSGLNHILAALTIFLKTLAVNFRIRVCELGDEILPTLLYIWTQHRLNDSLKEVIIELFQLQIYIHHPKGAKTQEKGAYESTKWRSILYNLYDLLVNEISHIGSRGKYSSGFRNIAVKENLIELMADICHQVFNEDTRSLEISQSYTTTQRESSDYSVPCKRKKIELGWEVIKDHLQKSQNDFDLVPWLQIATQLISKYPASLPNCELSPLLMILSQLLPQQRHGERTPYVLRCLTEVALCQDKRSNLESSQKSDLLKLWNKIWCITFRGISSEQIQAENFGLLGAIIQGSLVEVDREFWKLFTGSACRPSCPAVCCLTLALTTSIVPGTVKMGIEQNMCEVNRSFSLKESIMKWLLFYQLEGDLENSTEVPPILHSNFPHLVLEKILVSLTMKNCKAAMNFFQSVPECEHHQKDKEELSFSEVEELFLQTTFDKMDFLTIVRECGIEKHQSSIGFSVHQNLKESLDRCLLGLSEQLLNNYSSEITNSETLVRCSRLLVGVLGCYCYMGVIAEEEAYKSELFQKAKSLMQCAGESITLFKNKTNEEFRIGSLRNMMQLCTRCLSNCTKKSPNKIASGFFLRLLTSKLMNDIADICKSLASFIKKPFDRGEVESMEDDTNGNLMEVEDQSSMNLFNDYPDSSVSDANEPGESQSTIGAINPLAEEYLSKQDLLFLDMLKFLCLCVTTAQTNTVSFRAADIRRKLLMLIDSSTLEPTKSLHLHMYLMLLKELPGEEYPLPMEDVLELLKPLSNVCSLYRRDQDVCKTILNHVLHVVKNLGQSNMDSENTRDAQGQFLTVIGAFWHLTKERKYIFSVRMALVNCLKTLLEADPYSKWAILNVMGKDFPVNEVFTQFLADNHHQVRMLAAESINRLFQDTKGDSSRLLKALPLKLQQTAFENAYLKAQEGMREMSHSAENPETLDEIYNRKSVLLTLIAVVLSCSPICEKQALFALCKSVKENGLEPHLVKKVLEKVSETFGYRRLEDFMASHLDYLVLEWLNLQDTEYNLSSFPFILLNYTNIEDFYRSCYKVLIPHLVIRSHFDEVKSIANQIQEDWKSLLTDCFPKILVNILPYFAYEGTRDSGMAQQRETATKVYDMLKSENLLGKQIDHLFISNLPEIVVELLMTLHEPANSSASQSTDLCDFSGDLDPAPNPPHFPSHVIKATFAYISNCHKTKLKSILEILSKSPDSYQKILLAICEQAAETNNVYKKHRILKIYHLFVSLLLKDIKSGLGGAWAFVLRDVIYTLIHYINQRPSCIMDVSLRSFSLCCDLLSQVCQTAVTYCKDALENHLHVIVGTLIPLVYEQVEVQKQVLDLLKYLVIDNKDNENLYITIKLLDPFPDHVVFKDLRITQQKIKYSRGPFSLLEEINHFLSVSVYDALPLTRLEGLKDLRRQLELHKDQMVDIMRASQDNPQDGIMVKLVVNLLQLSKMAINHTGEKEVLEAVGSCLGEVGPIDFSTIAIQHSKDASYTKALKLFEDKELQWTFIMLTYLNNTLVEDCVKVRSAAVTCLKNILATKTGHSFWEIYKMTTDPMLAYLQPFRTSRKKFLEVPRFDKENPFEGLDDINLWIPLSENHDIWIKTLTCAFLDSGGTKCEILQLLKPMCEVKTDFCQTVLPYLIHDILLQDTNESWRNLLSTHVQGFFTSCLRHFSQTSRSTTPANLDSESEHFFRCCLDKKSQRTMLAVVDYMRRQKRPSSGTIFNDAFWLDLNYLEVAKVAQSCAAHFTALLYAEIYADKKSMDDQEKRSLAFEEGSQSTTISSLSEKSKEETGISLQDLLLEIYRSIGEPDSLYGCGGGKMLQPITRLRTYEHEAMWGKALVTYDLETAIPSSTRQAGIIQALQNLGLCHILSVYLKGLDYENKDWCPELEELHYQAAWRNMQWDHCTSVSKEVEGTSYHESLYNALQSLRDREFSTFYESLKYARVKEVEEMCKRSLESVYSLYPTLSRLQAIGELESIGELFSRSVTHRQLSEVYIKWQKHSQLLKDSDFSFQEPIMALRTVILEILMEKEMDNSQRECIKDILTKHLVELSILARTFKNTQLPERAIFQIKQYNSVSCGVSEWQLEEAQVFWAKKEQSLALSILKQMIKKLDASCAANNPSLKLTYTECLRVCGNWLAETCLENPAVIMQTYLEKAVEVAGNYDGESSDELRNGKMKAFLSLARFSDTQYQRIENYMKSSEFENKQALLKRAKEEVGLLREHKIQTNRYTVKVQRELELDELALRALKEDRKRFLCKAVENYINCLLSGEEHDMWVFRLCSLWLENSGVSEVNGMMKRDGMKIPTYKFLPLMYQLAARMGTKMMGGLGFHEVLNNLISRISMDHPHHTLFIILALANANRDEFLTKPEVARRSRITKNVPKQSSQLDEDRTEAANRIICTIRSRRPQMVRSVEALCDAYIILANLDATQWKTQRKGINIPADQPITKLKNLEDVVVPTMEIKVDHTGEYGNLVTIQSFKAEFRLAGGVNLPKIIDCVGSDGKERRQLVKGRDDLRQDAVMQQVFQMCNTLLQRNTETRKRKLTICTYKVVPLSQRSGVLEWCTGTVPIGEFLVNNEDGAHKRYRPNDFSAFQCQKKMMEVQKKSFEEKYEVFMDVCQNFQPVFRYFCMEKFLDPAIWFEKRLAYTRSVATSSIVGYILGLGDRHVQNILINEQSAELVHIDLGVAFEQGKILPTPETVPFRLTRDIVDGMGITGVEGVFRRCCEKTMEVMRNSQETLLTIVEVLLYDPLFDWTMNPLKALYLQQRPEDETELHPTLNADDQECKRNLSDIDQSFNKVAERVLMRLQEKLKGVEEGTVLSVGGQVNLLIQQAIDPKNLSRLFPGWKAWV
PI3K p110β/p85α (human), sequence (P42338 whole entry): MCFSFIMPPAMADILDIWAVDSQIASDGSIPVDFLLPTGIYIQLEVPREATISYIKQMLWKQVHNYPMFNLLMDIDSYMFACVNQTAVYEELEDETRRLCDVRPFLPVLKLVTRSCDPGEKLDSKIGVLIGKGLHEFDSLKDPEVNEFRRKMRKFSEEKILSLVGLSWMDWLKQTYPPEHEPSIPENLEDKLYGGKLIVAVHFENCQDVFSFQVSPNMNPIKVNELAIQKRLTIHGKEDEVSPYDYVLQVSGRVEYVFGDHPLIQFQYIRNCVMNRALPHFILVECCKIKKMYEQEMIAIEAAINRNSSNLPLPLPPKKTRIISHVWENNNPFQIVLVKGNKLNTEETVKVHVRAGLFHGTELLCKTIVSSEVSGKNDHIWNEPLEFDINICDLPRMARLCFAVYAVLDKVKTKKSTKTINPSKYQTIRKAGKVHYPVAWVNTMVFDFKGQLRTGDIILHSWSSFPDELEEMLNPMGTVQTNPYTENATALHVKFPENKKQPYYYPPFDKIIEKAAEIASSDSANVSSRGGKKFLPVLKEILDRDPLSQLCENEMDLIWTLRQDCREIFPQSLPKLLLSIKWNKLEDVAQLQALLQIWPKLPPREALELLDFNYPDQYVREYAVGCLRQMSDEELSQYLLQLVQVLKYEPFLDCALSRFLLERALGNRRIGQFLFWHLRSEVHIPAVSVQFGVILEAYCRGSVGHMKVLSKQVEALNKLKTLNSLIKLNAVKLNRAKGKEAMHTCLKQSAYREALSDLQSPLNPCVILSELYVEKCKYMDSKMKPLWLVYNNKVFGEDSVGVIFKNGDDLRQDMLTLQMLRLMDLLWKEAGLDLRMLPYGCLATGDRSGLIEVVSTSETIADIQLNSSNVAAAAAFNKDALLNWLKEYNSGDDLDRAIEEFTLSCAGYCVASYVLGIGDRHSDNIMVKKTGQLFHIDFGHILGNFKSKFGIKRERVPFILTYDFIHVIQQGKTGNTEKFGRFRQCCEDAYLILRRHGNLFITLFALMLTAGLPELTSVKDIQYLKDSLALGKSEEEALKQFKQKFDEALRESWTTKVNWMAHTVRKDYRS
PI3K p110β/p85α (human), sequence (P27986 whole entry partner): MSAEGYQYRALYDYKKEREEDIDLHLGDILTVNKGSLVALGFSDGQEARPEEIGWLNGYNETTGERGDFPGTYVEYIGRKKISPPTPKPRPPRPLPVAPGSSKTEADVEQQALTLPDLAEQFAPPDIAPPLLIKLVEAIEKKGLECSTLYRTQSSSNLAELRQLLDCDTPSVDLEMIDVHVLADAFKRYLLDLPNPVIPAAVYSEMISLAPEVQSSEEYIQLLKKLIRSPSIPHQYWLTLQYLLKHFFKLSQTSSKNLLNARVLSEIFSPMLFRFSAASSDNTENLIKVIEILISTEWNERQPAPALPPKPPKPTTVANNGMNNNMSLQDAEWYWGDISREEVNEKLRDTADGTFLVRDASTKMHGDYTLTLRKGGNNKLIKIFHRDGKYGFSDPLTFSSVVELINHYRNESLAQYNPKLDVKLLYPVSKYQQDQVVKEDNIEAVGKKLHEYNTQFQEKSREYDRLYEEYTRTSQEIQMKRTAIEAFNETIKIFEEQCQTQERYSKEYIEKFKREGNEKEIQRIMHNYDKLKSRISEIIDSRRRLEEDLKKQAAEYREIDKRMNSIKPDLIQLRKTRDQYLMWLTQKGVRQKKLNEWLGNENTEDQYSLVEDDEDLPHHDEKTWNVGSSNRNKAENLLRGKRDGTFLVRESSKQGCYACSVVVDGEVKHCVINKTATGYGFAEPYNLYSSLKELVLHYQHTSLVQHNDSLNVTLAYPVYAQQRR

Regarding `CCn1cc(-c2cc3c(cc2OC)ncc2c3n(-c3c(F)cncc3F)c(=O)n2C)cn1` [Compound Example 26, 1-(3,5-Difluoropyridin-4-yl)-8-(1-ethyl-1H-pyrazol-4-yl)-7-methoxy-3-methyl-1,3-dihydroimidazo[4,5-c] quinolin-2-one], the IC50 in assay [1] is less than 1 nM; in assay [1] (10 μM ATP, substrate p53) it was less than 1 nM; in assay [2], less than 200 nM; in assay [3], greater than 30 µM; in assay [4], greater than 30 µM; in assay [5], greater than 30 µM. In assay [6], the IC50 is greater than 30 µM.

For `COc1cc2ncc3c(c2cc1-c1ccc2nc(C)[nH]c2c1)n(-c1c(F)cncc1OC)c(=O)n3C` [compound 136, 1-(3-Fluoro-5-methoxy-pyridin-4-yl)-7-methoxy-3-methyl-8-(2-methyl-3H-benzoimidazol-5-yl)-1,3-dihydroimidazo[4,5-c]-quinolin-2-one], the IC50 was less than 1 nM in assay [1] (10 μM ATP, substrate p53) and less than 200 nM in assay [2]. For the same molecule, the “ratio IC50 (ATM) vs PI3Kgamma, selectivity with respect to PI3Kgamma” value in assay [3] is recorded as “at least 2000 times”. Also, the “fold selectivity for ATM over PI3Kbeta (IC50 PI3Kbeta / IC50 ATM)” value (“fold selectivity … (IC50 PI3Kbeta / IC50 ATM)” for short) in assay [7] is recorded as “at least 2000 times”.

With `COc1cc2ncc3c(c2cc1-c1cnn(C)c1)n(-c1ncc(OCS(C)(=O)=O)cc1F)c(=O)n3C` [compound 201, 1-(3-Fluoro-5-methyl-sulfonylmethoxypyridin-2-yl)-7-methoxy-3-methyl-8-(1-methyl-1H-pyrazol-4-yl)-1,3-dihydroimidazo[4,5-c]-quinolin-2-one], the IC50 is less than 1 nM in assay [1] (10 μM ATP, substrate p53) and less than 200 nM in assay [2]. For the same molecule, in assay [3], the “ratio IC50 (ATM) vs PI3Kgamma, selectivity with respect to PI3Kgamma” value is listed as “at least 2000 times”. Besides, the “fold selectivity … (IC50 PI3Kbeta / IC50 ATM)” value in assay [7] was “at least 2000 times”. Besides, the “ratio IC50 (ATM) vs PI3Kalpha, selectivity with respect to PI3Kalpha” value in assay [4] (as printed:) is recorded as “at least 2000 times”. In addition, the “ratio IC50 (ATM) vs PI3Kdelta, selectivity with respect to PI3Kdelta” value in assay [6] (as printed:) is recorded as “at least 2000 times”.

Turning to `CCc1cncc(C)c1-n1c(=O)n(C)c2cnc3cc(OC)c(-c4cnn(C)c4)cc3c21` [Compound Example 54, 1-(3-Ethyl-5-methylpyridin-4-yl)-7-methoxy-3-methyl-8-(1-methyl-1H-pyrazol-4-yl)-1,3-dihydroimidazo[4,5-c]-quinolin-2-one], the IC50 was less than 10 nM in assay [1]; less than 10 nM in assay [1] (10 μM ATP, substrate p53); 200 to 1000 nM in assay [2]; greater than 30 µM in assay [3]; greater than 30 µM in assay [4]; greater than 30 µM in assay [5]. In addition, the IC50 in assay [6] was greater than 30 µM.

On to `COc1ccc(-c2cc3c(cc2OC)ncc2c3n(-c3cn(C)nc3F)c(=O)n2C)cn1` [compound 159, 1-(3-Fluoro-1-methyl-1H-pyrazol-4-yl)-7-methoxy-8-(6-methoxypyridin-3-yl)-3-methyl-1,3-dihydroimidazo-[4,5-c]quinolin-2-one], for which the IC50 is less than 10 nM in assay [1] (10 μM ATP, substrate p53) and 1000 to 2000 nM in assay [2]. Moreover, the “fold selectivity … (IC50 PI3Kbeta / IC50 ATM)” value in assay [7] is listed as “at least 2000 times”.

Consider `COc1cc2ncc3c(c2cc1-c1cn[nH]c1)n(-c1ccncc1OC)c(=O)n3C` [Compound Example 32, 7-Methoxy-1-(3-methoxy-pyridin-4-yl)-3-methyl-8-(1H-pyrazol-4-yl)-1,3-dihydroimidazo[4,5-c]-quinolin-2-one], for which the IC50 in assay [1] is less than 10 nM; in assay [1] (10 μM ATP, substrate p53), less than 10 nM; in assay [2], less than 200 nM; in assay [3], greater than 30 µM; in assay [4], greater than 30 µM; in assay [5], greater than 10 µM. Also, in assay [6], the IC50 was greater than 30 µM.

Turning to `COc1cc2ncc3c(c2cc1-c1cn[nH]c1)n(-c1ccncc1C)c(=O)n3C` [Compound Example 19, 7-Methoxy-3-methyl-1-(3-methylpyridin-4-yl)-8-(1H-pyrazol-4-yl)-1,3-dihydro-imidazo[4,5-c]quinolin-2-one], the IC50 in assay [1] was less than 10 nM; in assay [1] (10 μM ATP, substrate p53), less than 10 nM; in assay [2], less than 200 nM; in assay [3] it was greater than 30 µM; in assay [4], greater than 30 µM; in assay [5] it was greater than 5 µM. In addition, the IC50 in assay [6] was greater than 30 µM.

For the molecule `COc1cc2ncc3c(c2cc1-c1cn(C)nc1C)n(-c1c(C)cncc1F)c(=O)n3C` [Compound Example 39, 8-(1,3-Dimethyl-1H-pyrazol-4-yl)-1-(3-fluoro-5-methyl-pyridin-4-yl)-7-methoxy-3-methyl-1,3-dihydroimidazo-[4,5-c]quinolin-2-one], the IC50 in assay [1] was less than 1 nM; in assay [1] (10 μM ATP, substrate p53) it was less than 1 nM; in assay [2], 200 to 1000 nM; in assay [3], greater than 30 µM; in assay [4] it was greater than 30 µM; in assay [5], greater than 30 µM. For the same molecule, the IC50 in assay [6] is greater than 30 µM.

As to `CCc1cncc(C)c1-n1c(=O)n(C)c2cnc3cc(OC)c(-c4cnn(CC)c4)cc3c21` [compound 61, 1-(3-Ethyl-5-methylpyridin-4-yl)-8-(1-ethyl-1H-pyrazol-4-yl)-7-methoxy-3-methyl-1,3-dihydroimidazo[4,5-c] quinolin-2-one], the IC50 in assay [1] is less than 10 nM; in assay [1] (10 μM ATP, substrate p53), less than 10 nM; in assay [2] it was 1000 to 2000 nM; in assay [4], greater than 30 µM; in assay [5], greater than 30 µM; in assay [6], greater than 30 µM.

As to `COc1cc2ncc3c(c2cc1-c1cnn(C)c1)n(-c1c(F)cncc1F)c(=O)n3C` [Compound Example 22, 1-(3,5-Difluoropyridin-4-yl)-7-methoxy-3-methyl-8-(1-methyl-1H-pyrazol-4-yl)-1,3-dihydroimidazo[4,5-c] quinolin-2-one], the IC50 is less than 1 nM in assay [1]; less than 1 nM in assay [1] (10 μM ATP, substrate p53); less than 200 nM in assay [2]; greater than 30 µM in assay [3]; greater than 30 µM in assay [4]; greater than 30 µM in assay [5]. In addition, the IC50 in assay [6] was greater than 30 µM.
